# US9487819B2, “Quantitative genetically encoded optical reporter construct” (Cornell University, priority 2009, dated 2016)
# Assays:
# [1] = tested on: [ATP] in nerve terminals of neurons; assay: Presynaptic [ATP] at rest reported by Syn-ATP under metabolic inhibitors; format: cell-based, rat; settings: resting neurons, TTX to block action potential firing (FIG. 15)
# Method: All experiments were performed using dissociated primary hippocampal neurons according to procedures that have been previously described in Ryan T A. J. Neurosci 19:1317-1323 (1999). Briefly, hippocampi from newborn rats (P2-P4) were removed and dissected. Prior to cell dissociation, the dendate gyrus was removed leaving a relatively pure population of CA3 & CA1 excitatory neurons and interneurons. […] For fluorescence and luminescence experiments cover slips were mounted in a rapid switching low volume perfusion chamber equipped with stimulus electrodes and mounted on the stage of an inverted microscope equipped with EMCCD detection and laser-based wide-field illumination. Chemiluminescence was imaged using the same apparatus as the fluorescence, however no excitation source was used during the detection of light.
# On DIV 14-25, neurons were mounted in a custom-built physiological perfusion chamber with temperature control that allows direct control of field stimulation to drive action potential firing. […] Luminescence and fluorescence imaging were performed using an EM-CCD Andor Ixon, thinned back-illuminated sensor through a 1.3 NA 40× fluar objective. Neurons expressing Syn-ATP were perfused with 20 mM luciferin, one minute prior to and throughout the period during which the luminescence images was obtained. […]
# [2] = maximal number of photons emitted; cited from earlier work
Molecule,change of [ATP] at rest [1],kcat [2]
CC[C@H]1/C=C/C=C/C[C@@H](C)[C@H](O)[C@@](C)(O)C(=O)[C@@H](C)[C@H](O)[C@@H](C)C(=O)[C@@H](C)[C@H](O)[C@@H](C)/C=C/C(=O)O[C@@H]2[C@H](C)[C@H](CC1)O[C@]1(CC[C@H](C)[C@H](C[C@@H](C)O)O1)[C@H]2C [oligomycin],does not change,–
O=CC[C@@H](O)[C@H](O)[C@H](O)CO [2-deoxyglucose],decreases,–
"Photonus pyralis luciferase: 62 kD firefly luciferase, SEQ ID NO: 1 (protein, listed as Photonis pyralis) MEDAKNIKKGPAPFYPLEDGTAGEQLHKAMKRYALVPGTIAFTDAHIEVDITYAEYFEMSVRLAEAMKRYGLNTNHRIVVCSENSLQFFMPVLGALFIGVAVAPANDIYNERELLNSMGISQPTVVFVSKKGLQKILNVQKKLPIIQKIIIMDSKTDYQGFQSMYTFVTSHLPPGFNEYDFVPESFDRDKTIALIMNSSGSTGLPKGVALPHRTACVRFSHARDPIFGNQIIPDTAILSVVPFHHGFGMFTTLGYLICGFRVVLMYRFEEELFLRSLQDYKIQSALLVPTLFSFFAKSTLIDKYDLSNLHEIASGGAPLSKEVGEAVAKRFHLPGIRQGYGLTETTSAILITPEGDDKPGAVGKVVPFFEAKVVDLDTGKTLGVNQRGELCVRGPMIMSGYVNNPEATNALIDKDGWLHSGDIAYWDEDEHFFIVDRLKSLIKYKGYQVAPAELESILLQHPNIFDAGVAGLPDDDAGELPAAVVVLEHGKTMTEKEIVDYVASQVTTAKKLRGGVVFVDEVPKGLTGKLDARKIREILIKAKKGGKIAV",–,approximately 1.6 per sec
